Experiments:
[1] = tested on: male Wistar rats; assay: Effect on bicarbonate secretion into bile in rats after oral dosing; format: in vivo, rat
Description: The effect of Compound A (13,14-dihydro-15-keto-16,16-difluoro-18(S)-methyl-PGE1) on Gastrointestinal bicarbonate secretion was studied.
Seven weeks old male Wistar rats were used in this study. Compound A at a dose of 100 μg/kg was administered orally to the animals three times daily for 7 days. Control animals received an equal volume of the vehicle (distilled water containing 0.01% polysorbate 80 and 0.5% ethanol). On the next morning of the final administration (about 17 hours after the final administration), a polyethylene catheter (PE10, Becton Dickinson and Company) was inserted into the common bile duct of the animal under ether anesthesia. The animals were placed into a Borrmann's cage individually and allowed to recover from the anesthesia for 1 hour. Bile was collected for 1 hour between 1 and 2 hours after inserting the catheter. The amount of bicarbonate (HCO3^−) in the bile was measured with an automated pH/blood gas analyzer (model 170, Ciba Corning Diagnostics Corp.).

[2] = tested on: PG receptors such as EP and FP receptors; details: Journal of Ocular Pharmacology and Therapeutics 17(5), 433-441, 2001; cited from earlier work

SMILES | amount of bicarbonate secreted into the bile compared with the control group ([1]; 100 μg/kg orally three times daily for 7 days, Wistar rats) | Bicarbonate secretion Mean ± S.E. ([1]; 100 μg/kg p.o., TID for 7 days, bile collected for 1 hour, about 17 hours after the final administration, n=7, *p < 0.05 compared with control group (control 10.16 ± 0.81)) | affinity for PG receptors such as EP and FP receptors [2]
CC[C@H](C)CC(F)(F)C(=O)CC[C@H]1[C@H](O)CC(=O)[C@@H]1CCCCCCC(=O)O [Compound A, 13,14-dihydro-15-keto-16,16-difluoro-18(S)-methyl-PGE1] | increased significantly | 13.33 ± 1.00* μmol/hr/100 g body weight | 
CCCCCCCC(=O)CC[C@@H]1[C@@H](C/C=C\CCCC(=O)OC(C)C)[C@@H](O)C[C@H]1O [unoprostone isopropyl] |  |  | does not have affinity
